Tested on: IL-15 induced P-STAT5 in human PBMC (total lymphocytes)
Assay: PBMC IL-15 Induced P-STAT5
Type: cell-based
Settings: Homo sapiens, PBMC, IL-15 stimulated, read-out: PBMC IL15-pSTAT5 IC50
Experimental: PBMC IL-15 Induced P-STAT5
Frozen human PBMC (200-250 million cells/vial) was thawed at 37° C. The cells were transferred to 10 mL warm medium in a 50-mL conical tube, and centrifuged at 1,200 RPM at room temperature for 5 min. The supernatant was aspirated. […] After adding 47 ml D-PBS (37° C.) to PBMC/FBS suspension, centrifuging at 1,200 RPM at room temperature for 5 min, and aspirating the supernatant, the cells were resuspended in 20 mL warm RPMI medium. Ninety μL of cell suspension were pipetted per well in a 96-well, deep-well, V-bottom plate, and the plate was incubated at 37° C. for 30 min. […] After adding 0.8 mL staining buffer per well, the plates were centrifuged at 1,200 RPM (Beckman GS-6R or Sorvall Legend) at room temperature for 5 min, and again the supernatant was aspirated using a 8-channel or 12-channel manifold. The plate was vortexed, and 0.35 mL 90% methanol/10% H2O (−20° C.) was added per well, and the plate incubated on ice for 20 min. After again adding 0.8 mL staining buffer per well, the plates were centrifuged at 1,200 RPM (Beckman GS-6R or Sorvall Legend) at room temperature for 5 min, and again the supernatant was aspirated using a 8-channel or 12-channel manifold, and then 0.8 mL Staining buffer was added per well. After once again adding 0.8 mL staining buffer per well, the plates were centrifuged at 1,200 RPM (Beckman GS-6R or Sorvall Legend) at room temperature for 5 min, and again the supernatant was aspirated using a 8-channel or 12-channel manifold. […] Samples of 250 μL/well were transferred to a 96-well U-bottom plate, and the FACS analysis was performed gating on total lymphocytes. Samples were analyzed using a BD Calibur™ or BD FACSCanto™ flow cytometer equipped with the BD High Throughput Sampler.

Compound	IC50 [nM]
C=CC(=O)N1CCC(Nc2cnc3[nH]cc(C(=O)NC4CCCC4(F)F)c3n2)CC1 (centres unmarked) [Example 234, 2-[(1-acryloylpiperidin-4-yl)amino]-N-(2,2-difluorocyclopentyl)-5H-pyrrolo[2,3-b]pyrazine-7-carboxamide]	65.2
C=CC(=O)N1CC[C@@H]2CN(c3cnc4[nH]cc(C(=O)NC(C)C)c4n3)C[C@@H]21 [Example 170, 2-[(3aR,6aR)-1-acryloylhexahydropyrrolo[3,4-b]pyrrol-5(1H)-yl]-N-(propan-2-yl)-5H-pyrrolo[2,3-b]pyrazine-7-carboxamide]	1370

Same assay, conditions: IL-15 stimulated, read-out: PBMC IL15-pSTAT5 IC50

Compound	IC50 [nM]
C=CC(=O)N1CCN(c2cnc3[nH]cc(C(=O)NC(C)C)c3n2)[C@@H](CC)C1 [Example 325, 2-[(2S)-4-acryloyl-2-ethylpiperazin-1-yl]-N-(propan-2-yl)-5H-pyrrolo[2,3-b]pyrazine-7-carboxamide]	1560
C=CC(=O)N1CCC(Nc2cnc3[nH]cc(-c4cncc(C#N)c4)c3n2)CC1 [Example 206, 5-{2-[(1-acryloylpiperidin-4-yl)amino]-5H-pyrrolo[2,3-b]pyrazin-7-yl}pyridine-3-carbonitrile]	163
C=CC(=O)N1CCC(Nc2cnc3[nH]cc(C(=O)N4CCC4)c3n2)CC1 [Example 284, 1-(4-{[7-(azetidin-1-ylcarbonyl)-5H-pyrrolo[2,3-b]pyrazin-2-yl]amino}piperidin-1-yl)prop-2-en-1-one]	2790
C=CC(=O)N1CCC(Oc2cnc3[nH]cc(-c4cccc(C(=O)NC)c4)c3n2)CC1 [Example 227, 3-{2-[(1-acryloylpiperidin-4-yl)oxy]-5H-pyrrolo[2,3-b]pyrazin-7-yl}-N-methylbenzamide]	643
C=CC(=O)N1C[C@H](Nc2ncnc3[nH]cc(C(N)=O)c23)CC[C@@H]1C [Example 164, 4-{[(3R,6S)-1-Acryloyl-6-methylpiperidin-3-yl]amino}-7H-pyrrolo[2,3-d]pyrimidine-5-carboxamide]	1650
C=CC(=O)N1CCC(Nc2cnc3[nH]cc(C(=O)NCC4(O)CCCC[C@H]4F)c3n2)CC1 (stereo partly drawn) [Example 250, 2-[(1-acryloylpiperidin-4-yl)amino]-N-{[(2R)-2-fluoro-1-hydroxycyclohexyl]methyl}-5H-pyrrolo[2,3-b]pyrazine-7-carboxamide]	4120
C=CC(=O)N1CCC(Oc2cnc3[nH]cc(C(=O)NC(C)(C)C)c3n2)CC1 [Example 338, 2-((1-Acryloylpiperidin-4-yl)oxy)-N-(tert-butyl)-5H-pyrrolo[2,3-b]pyrazine-7-carboxamide]	480
C=CC(=O)N1CCC(Oc2cnc3[nH]cc(-c4cccnc4F)c3n2)CC1 [Example 217, 1-(4-{[7-(2-fluoropyridin-3-yl)-5H-pyrrolo[2,3-b]pyrazin-2-yl]oxy}piperidin-1-yl)prop-2-en-1-one]	129
C=CC(=O)N1CCC[C@@H](Nc2ncnc3[nH]cc(CCO)c23)C1 [Example 55, (R)-1-(3-((5-(2-Hydroxyethyl)-7H-pyrrolo[2,3-d]pyrimidin-4-yl)amino)piperidin-1-yl)prop-2-en-1-one]	430
C=CC(=O)N1CCC[C@@H](Nc2ncnc3[nH]cc(-c4cncc(OC)c4)c23)C1 [Example 24, 1-[(3R)-3-{[5-(5-methoxypyridin-3-yl)-7H-pyrrolo[2,3-d]pyrimidin-4-yl]amino}piperidin-1-yl]prop-2-en-1-one]	320
C=CC(=O)N1C[C@H](C)C[C@@H](Nc2ncnc3[nH]ccc23)C1 (racemic) [Example 65, Rac-1-((3R,5R)-3-((7H-Pyrrolo[2,3-d]pyrimidin-4-yl)amino)-5-methylpiperidin-1-yl)prop-2-en-1-one]	3740
C=CC(=O)N1[C@H](C)CN(c2cnc3[nH]cc(C(=O)NC(C)C)c3n2)C[C@@H]1C [Example 306, 2-[(3R,5S)-4-acryloyl-3,5-dimethylpiperazin-1-yl]-N-(propan-2-yl)-5H-pyrrolo[2,3-b]pyrazine-7-carboxamide]	1090

From US11111242B2, “Pyrrolo[2,3-d]pyrimidinyl, pyrrolo[2,3-b]pyrazinyl and pyrrolo[2,3-d]pyridinyl acrylamides” (Pfizer Inc., priority 2013, dated 2021)
